Laboratory results reported in PubChem BioAssay AID330 (DTP/NCI, 2004).
Inconclusive results and toxic doses are left out. Rule for the calls: active = survival T/C of 150% or more; inactive = T/C below 125% in these data. Square brackets hold non-standard residues; d marks the D form. Peptide text beside a SMILES is read from it. * marks the point of attachment. ξ: configuration not given here. Cbz = O=C(OCc1ccccc1)*; ξV = CC(C)C(N)C(=O)O; Sar = CNCC(=O)O

Tested on: P388 leukemia ip, CD2F1 mice, survival T/C
Assay: NCI In Vivo Anticancer Drug Screen. Data for tumor model P388 Leukemia (intraperitoneal) in CD2F1 (CDF1) mice
Details: endpoint: median survival time, higher = longer survival
Summary of the method: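 Mice carrying the transplanted tumor received test compound or vehicle. Survival was recorded in each group, and the value is the treated-group measurement divided by that of the vehicle-treated control group.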

[1] = dose: 50.0 mg/kg/injection, schedule: Q01DX009 (ip), vehicle: saline with Tween-80
[2] = dose: 100.0 mg/kg/injection, schedule: Q01DX009 (ip), vehicle: saline with Tween-80
[3] = dose: 200.0 mg/kg/injection, schedule: Q01DX009 (ip), vehicle: saline with Tween-80
[4] = dose: 60.0 mg/kg/injection, schedule: Q01DX005 (ip), vehicle: Klucel (hydroxypropylcellulose) (HPC)
[5] = dose: 120.0 mg/kg/injection, schedule: Q01DX005 (ip), vehicle: Klucel (hydroxypropylcellulose) (HPC)
[6] = dose: 240.0 mg/kg/injection, schedule: Q01DX005 (ip), vehicle: Klucel (hydroxypropylcellulose) (HPC)
[7] = dose: 50.0 mg/kg/injection, schedule: Q01DX005 (ip), vehicle: saline
[8] = dose: 100.0 mg/kg/injection, schedule: Q01DX005 (ip), vehicle: saline
[9] = dose: 200.0 mg/kg/injection, schedule: Q01DX005 (ip), vehicle: saline
[10] = dose: 50.0 mg/kg/injection, schedule: Q01DX005 (ip), vehicle: Klucel (hydroxypropylcellulose) (HPC)
[11] = dose: 100.0 mg/kg/injection, schedule: Q01DX005 (ip), vehicle: Klucel (hydroxypropylcellulose) (HPC)
[12] = dose: 60.0 mg/kg/injection, schedule: Q01DX005 (ip), vehicle: saline
[13] = dose: 120.0 mg/kg/injection, schedule: Q01DX005 (ip), vehicle: saline
[14] = dose: 240.0 mg/kg/injection, schedule: Q01DX005 (ip), vehicle: saline
[15] = dose: 50.0 mg/kg/injection, schedule: Q01DX009 (ip), vehicle: Klucel (hydroxypropylcellulose) (HPC)
[16] = dose: 100.0 mg/kg/injection, schedule: Q01DX009 (ip), vehicle: Klucel (hydroxypropylcellulose) (HPC)
[17] = dose: 200.0 mg/kg/injection, schedule: Q01DX009 (ip), vehicle: Klucel (hydroxypropylcellulose) (HPC)

Measured: T/C

Oc1c(CN2CCOCC2)cc(CN2CCOCC2)cc1CN1CCOCC1
inactive: [1] 94 % of control | [2] 103 % of control | [3] 100 % of control | dose: 400.0 mg/kg/injection, schedule: Q01DX009 (ip), vehicle: saline with Tween-80 100 % of control

COC(=O)N1Cc2cc3ccccc3nc2C1C (stereo unspecified)
inactive: [4] 101 % of control | [5] 104 % of control | [6] 109 % of control

Cc1cc(=O)oc2c(C)c3occc(=O)c3cc12
inactive: dose: 100.0 mg/kg/injection, schedule: Q01DX001 (ip), vehicle: saline with Tween-80 99 % of control | dose: 200.0 mg/kg/injection, schedule: Q01DX001 (ip), vehicle: saline with Tween-80 90 % of control | dose: 400.0 mg/kg/injection, schedule: Q01DX001 (ip), vehicle: saline with Tween-80 87 % of control

CCOC(=O)CC1NCCc2c1[nH]c1ccccc21 (stereo unspecified)
inactive: dose: 6.25 mg/kg/injection, schedule: Q01DX001 (ip), vehicle: saline sonified 90 % of control | dose: 12.5 mg/kg/injection, schedule: Q01DX001 (ip), vehicle: saline sonified 90 % of control | dose: 25.0 mg/kg/injection, schedule: Q01DX001 (ip), vehicle: saline sonified 100 % of control

O=NN(CCCl)C(=O)Oc1ccc(F)cc1
inactive: dose: 3.12 mg/kg/injection, schedule: Q01DX001 (ip), vehicle: saline with Tween-80 118 % of control | dose: 6.25 mg/kg/injection, schedule: Q01DX001 (ip), vehicle: saline with Tween-80 116 % of control | dose: 50.0 mg/kg/injection, schedule: Q01DX001 (ip), vehicle: saline with Tween-80 106 % of control

CCN(CC)CCN1C(=O)[C@H]2CC=CC[C@H]2C1=O
inactive: [7] 99 % of control | [8] 105 % of control | [9] 97 % of control

CC(=O)OC(OC(C)=O)c1cc(Cl)c(C(OC(C)=O)OC(C)=O)cc1Cl
inactive: [4] 107 % of control | [5] 106 % of control | [6] 103 % of control

O=C(CC(c1ccccc1)C(C(=O)O)c1ccc(Br)cc1)c1ccccc1 (stereo unspecified)
inactive: dose: 12.5 mg/kg/injection, schedule: Q01DX005 (ip), vehicle: Klucel (hydroxypropylcellulose) (HPC) 100 % of control | dose: 25.0 mg/kg/injection, schedule: Q01DX005 (ip), vehicle: Klucel (hydroxypropylcellulose) (HPC) 90 % of control | [10] 89 % of control

COc1ccc(C(=O)OC2(C)CC(C)(C)N=N2)cc1 (stereo unspecified)
inactive: dose: 12.5 mg/kg/injection, schedule: Q01DX009 (ip), vehicle: other 105 % of control | dose: 25.0 mg/kg/injection, schedule: Q01DX009 (ip), vehicle: other 108 % of control | dose: 50.0 mg/kg/injection, schedule: Q01DX009 (ip), vehicle: other 108 % of control | dose: 100.0 mg/kg/injection, schedule: Q01DX009 (ip), vehicle: other 108 % of control | dose: 200.0 mg/kg/injection, schedule: Q01DX009 (ip), vehicle: other 108 % of control

COc1cc(OC(=O)NCCCl)cc(OC)c1OC
inactive: [10] 101 % of control | [11] 108 % of control | dose: 200.0 mg/kg/injection, schedule: Q01DX005 (ip), vehicle: Klucel (hydroxypropylcellulose) (HPC) 92 % of control

CCOC(=O)C[n+]1ccc2cc(OC)c(OC)cc2c1Cc1ccc(OC)c(OC)c1
inactive: [1] 102 % of control | [2] 90 % of control | [3] 90 % of control

CN1C(=O)C23SSC1(C)C(=O)N2c1ccccc1C3(C)C (stereo unspecified)
inactive: dose: 12.5 mg/kg/injection, schedule: Q01DX009 (ip), vehicle: suspension in saline 95 % of control | dose: 25.0 mg/kg/injection, schedule: Q01DX009 (ip), vehicle: suspension in saline 91 % of control | dose: 50.0 mg/kg/injection, schedule: Q01DX009 (ip), vehicle: saline 95 % of control

CC(C)C1CCC(C)(Cl)C2CCC(C)(Cl)CC12 (stereo unspecified)
inactive: dose: 100.0 mg/kg/injection, schedule: Q04DX003 (ip), vehicle: other 90 % of control | dose: 200.0 mg/kg/injection, schedule: Q04DX003 (ip), vehicle: other 100 % of control | dose: 400.0 mg/kg/injection, schedule: Q04DX003 (ip), vehicle: other 100 % of control

CC(C)(C)N=C(CCN1CCCCC1)Nc1ccc([N+](=O)[O-])cc1
inactive: [1] 112 % of control | [2] 110 % of control | [3] 103 % of control

Cc1c(/C=C/c2oc3ccc(C(=N)N)cc3c2C)oc2ccc(C(=N)N)cc12
inactive: dose: 100.0 mg/kg/injection, schedule: Q04DX002 (ip), vehicle: saline 124 % of control

CCCCNC1(N(C)C)N=C(N(C)C)N=C(N(C)C)O1 (stereo unspecified)
inactive: [7] 88 % of control | [8] 89 % of control | [9] 95 % of control

Nc1cc(F)ccc1CC(=O)O
inactive: [12] 103 % of control | [13] 99 % of control | [14] 99 % of control

CC1(C)CC(Nc2ccccc2)=CC(N2CCOCC2)=N1
inactive: [10] 103 % of control | [11] 100 % of control

CON/C=C(C#N)/C=C/C=Nc1ccc(S(=O)(=O)Nc2onc(C)c2C)cc1
inactive: [1] 100 % of control | [2] 92 % of control | [3] 98 % of control

CC(C)C(NC(=O)CN(C)C(=O)OCc1ccccc1)C(=O)O (stereo unspecified) (Cbz-[Sar]-[ξV]-OH)
inactive: dose: 50.0 mg/kg/injection, schedule: Q01DX005 (ip), vehicle: saline with Tween-80 100 % of control | dose: 100.0 mg/kg/injection, schedule: Q01DX005 (ip), vehicle: saline with Tween-80 102 % of control

CC(=O)OC1CCC2(C)C(=CCC3C2CCC2(C)C(OC(C)=O)/C(=C/C(=O)O)CC32)C1 (stereo unspecified)
inactive: dose: 25.0 mg/kg/injection, schedule: Q01DX009 (ip), vehicle: Klucel (hydroxypropylcellulose) (HPC) 94 % of control | [15] 97 % of control | [16] 97 % of control | [17] 90 % of control

CC(C)=NNC1=NC(C)(C)P(=O)(N2CCCC2C(=O)O)S1 (stereo unspecified)
inactive: [12] 98 % of control | [13] 104 % of control | [14] 102 % of control

N#Cc1ccc(NN=NCCS(=O)CCCl)cc1 (stereo unspecified)
inactive: dose: 6.25 mg/kg/injection, schedule: Q01DX009 (ip), vehicle: distilled water + Tween-80 100 % of control | dose: 12.5 mg/kg/injection, schedule: Q01DX009 (ip), vehicle: distilled water + Tween-80 111 % of control | dose: 25.0 mg/kg/injection, schedule: Q01DX009 (ip), vehicle: distilled water + Tween-80 112 % of control

N#Cc1ccc(NN=O)cc1
inactive: dose: 3.12 mg/kg/injection, schedule: Q01DX009 (ip), vehicle: water 100 % of control | dose: 6.25 mg/kg/injection, schedule: Q01DX009 (ip), vehicle: water 105 % of control | dose: 12.5 mg/kg/injection, schedule: Q01DX009 (ip), vehicle: water 105 % of control | dose: 25.0 mg/kg/injection, schedule: Q01DX009 (ip), vehicle: water 117 % of control | dose: 100.0 mg/kg/injection, schedule: Q01DX009 (ip), vehicle: water 117 % of control

O=C(CNNC(=S)Nc1cccc2ccccc12)c1cccc2c1Nc1ccccc1S2
inactive: [15] 101 % of control | [16] 103 % of control | [17] 101 % of control

O=C([Se][Se]C(=O)c1ccc(Cl)cc1)c1ccc(Cl)cc1
inactive: dose: 12.5 mg/kg/injection, schedule: Q01DX009 (ip), vehicle: saline with Tween-80 99 % of control | dose: 25.0 mg/kg/injection, schedule: Q01DX009 (ip), vehicle: saline with Tween-80 100 % of control | [1] 100 % of control | [2] 98 % of control
